Assay results from US20210379085A1, “HALOGENATED SALICYLANILIDES FOR TREATING THE SYMPTOMS OF DERMATITIS” (Union Therapeutics A/S, priority 2018, published 2021).

Experiments:
[1] = Systemic exposure to niclosamide (serum) after topical application in healthy volunteers; assay type: in vivo; settings: human, after topical niclosamide formulations twice daily 7 days and final dose Day 8
Protocol: The skin biopsies were taken using sterile single use disposable biopsy punches (BP40F, Kai Europe GmbH, Solingen, Germany). For the 6 non-treated healthy volunteers biopsies were taken on Day 1. 10 mL of blood was collected at day 1 for the method validation group to determine niclosamide concentration in the blood.

[2] = test system: skin barrier and inflammation biomarkers in lesional skin biopsies; assay: Microarray (Affymetrix U133A Plus 2) biomarker gene expression in lesional skin biopsies (Example 3); assay type: in vivo, human
Protocol: (§1) Patients received topical applications of a niclosamide 2% composition and vehicle once daily for 3 weeks, followed by a 1-week follow up period. Topical niclosamide 2% and vehicle was applied on two separate target lesions of atopic dermatitis (lesions of at least 3×3-cm that are at least 2 cm apart, excluding the face, scalp, genitals, hands, and feet). The application areas (5×5-cm) were randomized (1:1) to once daily application of niclosamide 2% or vehicle at 5 mg/cm^2 without occlusion 6 days per week. Patients came to the study site for all study product application for a total of 3 weeks.
(§2) Skin barrier and inflammation biomarker levels were determined from lesional skin biopsies from application areas.
(§3) The skin biopsy samples were analysed by immunohistochemistry (IHC), and by gene expression studies by RT-PCR using TaqMan Low Density Array (TLDA), and by microarray using Affymetrix U133A Plus 2. The immunohistochemistry (IHC) was used to analyse cell biomarkers. The methodologies as disclosed by Guttman-Yassky et al, “Major differences in inflammatory dendritic cells and their products distinguish atopic dermatitis from psoriasis”, The Journal of Allergy and Clinical Immunology, vol. 119, issue 5, pages 1210-1217, 2007, were followed except for that U133A Plus 2-set Gene Chip probe arrays was used instead of U95A-set Gene Chip probe arrays.
Experimental design: The hybridization strategy was in concordance with experimental design principles, by for example keeping all samples from the same patient in the same date, and always include samples from every treatment arm/group.
Quality Control and Pre-processing: Quality control of microarray chips were carried out using standard QC metrics and R package microarray Quality Control. Expression measures were obtained using GCRMA algorithm (Wu & Irizarry, 2004). Several visual and modelling techniques were used to elucidate if batch effect existed. Principal Component analysis plots were used to detect if any evident batch effect existed. If such batch effects were found, they were adjusted using Combat, an empirical Bayes method for adjusting data for batch effects that is robust to outliers in small sample sizes (Johnson, Li, & Rabinovic, 2007). The implementation of Combat by package sva was used.
Probe-sets with at least 5% samples with expression larger than 3 (in log 2-scale) were kept for further analysis. Expression values were modelled using mixed-effect models with fixed factors Visit and Treatment Area and a random effect for each patient. Fold changes for the comparisons of interest were estimated and hypothesis testing was conducted on such comparisons using contrasts under the general framework for linear models in limma package. The inter-replicate correlation was computed by Duplicate Correlation function and the linear model was estimated by ImFit. P-values from the moderated (paired) t-test were adjusted for multiple hypotheses using the Benjamini-Hochberg procedure, which controls for FDR.

[3] = test system: immune cell infiltrates (CD3, langerin, CD11c, FceR1) in lesional skin; assay: Immunohistochemistry (IHC) of cell biomarkers in lesional skin biopsies (Example 3); assay type: in vivo, human; settings: topical 2% niclosamide
Protocol: as §1, §2, §3

[4] = Day 22, topical administration of 2% niclosamide, p<0.05
[5] = fold change, Day 22, vehicle-treated vs niclosamide-treated lesion, topical niclosamide 2% once daily 3 weeks, AD lesional skin
[6] = fold change, Day 22 vs baseline, topical niclosamide 2% once daily 3 weeks, AD lesional skin
[7] = Day 22 compared to baseline (pre-dosing at Day 1)

Structure (SMILES): O=C(Nc1ccc([N+](=O)[O-])cc1Cl)c1cc(Cl)ccc1O [Niclosamide, niclosamide]
- concentration at 8 day [1]: 0.24 ng/mL
- CXCL1 downregulation, 2% niclosamide compared to vehicle (microarray values) [2, 4]: −2.10
- PI3 downregulation, 2% niclosamide compared to vehicle (microarray values) [2, 4]: −1.87
- S100A9 downregulation, 2% niclosamide compared to vehicle (microarray values) [2, 4]: −1.88
- S100A12 downregulation, 2% niclosamide compared to vehicle (microarray values) [2, 4]: −2.30
- ACOT2 expression, Vehicle vs. Niclosamide (Microarray) [2, 5]: −1.35
- ACOX2 expression, Vehicle vs. Niclosamide (Microarray) [2, 5]: −1.40
- CCL2 expression, Vehicle vs. Niclosamide (Microarray) [2, 5]: 1.56
- CCL13 expression, Vehicle vs. Niclosamide (Microarray) [2, 5]: 1.32
- CCL18 expression, Vehicle vs. Niclosamide (Microarray) [2, 5]: 1.66
- CCL20 expression, Vehicle vs. Niclosamide (Microarray) [2, 5]: 2.00
- CCL23 expression, Vehicle vs. Niclosamide (Microarray) [2, 5]: 1.63
- CCL26 expression, Vehicle vs. Niclosamide (Microarray) [2, 5]: 1.69
- CCR1 expression, Vehicle vs. Niclosamide (Microarray) [2, 5]: 1.55
- CCR6 expression, Vehicle vs. Niclosamide (Microarray) [2, 5]: 1.31
- CXCL1 expression, Vehicle vs. Niclosamide (Microarray) [2, 5]: 2.10
- DGAT2 expression, Vehicle vs. Niclosamide (Microarray) [2, 5]: −1.19
- ELOVL3 expression, Vehicle vs. Niclosamide (Microarray) [2, 5]: −1.66
- FA2H expression, Vehicle vs. Niclosamide (Microarray) [2, 5]: −1.57
- FAR2 expression, Vehicle vs. Niclosamide (Microarray) [2, 5]: −1.47
- FAXDC2 expression, Vehicle vs. Niclosamide (Microarray) [2, 5]: −1.29
- IFNGR2 expression, Vehicle vs. Niclosamide (Microarray) [2, 5]: 1.10
- IL1F10 expression, Vehicle vs. Niclosamide (Microarray) [2, 5]: −1.79
- IL4R expression, Vehicle vs. Niclosamide (Microarray) [2, 5]: 1.29
- IL26 expression, Vehicle vs. Niclosamide (Microarray) [2, 5]: 1.78
- KRT79 expression, Vehicle vs. Niclosamide (Microarray) [2, 5]: −2.00
- LCN2 expression, Vehicle vs. Niclosamide (Microarray) [2, 5]: 1.69
- PI 3 expression, Vehicle vs. Niclosamide (Microarray) [2, 5]: 1.87
- PNPLA3 expression, Vehicle vs. Niclosamide (Microarray) [2, 5]: −1.79
- PPARG expression, Vehicle vs. Niclosamide (Microarray) [2, 5]: −1.55
- S100A9 expression, Vehicle vs. Niclosamide (Microarray) [2, 5]: 1.88
- S100A12 expression, Vehicle vs. Niclosamide (Microarray) [2, 5]: 2.30
- SPTLC3 expression, Vehicle vs. Niclosamide (Microarray) [2, 5]: −1.30
- STAT1 expression, Vehicle vs. Niclosamide (Microarray) [2, 5]: 1.13
- STAT3 expression, Vehicle vs. Niclosamide (Microarray) [2, 5]: 1.16
- TNFSF4 expression, Vehicle vs. Niclosamide (Microarray) [2, 5]: 1.35
- ACER1 expression, Niclosamide vs Predose (Microarray) [2, 6]: 1.94
- ACOX2 expression, Niclosamide vs Predose (Microarray) [2, 6]: 1.40
- ACSL1 expression, Niclosamide vs Predose (Microarray) [2, 6]: 1.21
- ANXA6 expression, Niclosamide vs Predose (Microarray) [2, 6]: −1.24
- ANXA9 expression, Niclosamide vs Predose (Microarray) [2, 6]: 1.56
- CCL2 expression, Niclosamide vs Predose (Microarray) [2, 6]: −1.77
- CCL13 expression, Niclosamide vs Predose (Microarray) [2, 6]: −1.40
- CCL18 expression, Niclosamide vs Predose (Microarray) [2, 6]: −1.70
- CCL19 expression, Niclosamide vs Predose (Microarray) [2, 6]: −1.56
- CCL22 expression, Niclosamide vs Predose (Microarray) [2, 6]: −1.83
- CCR1 expression, Niclosamide vs Predose (Microarray) [2, 6]: −1.90
- CCR2 expression, Niclosamide vs Predose (Microarray) [2, 6]: −1.37
- CCR5 expression, Niclosamide vs Predose (Microarray) [2, 6]: −1.40
- CCR6 expression, Niclosamide vs Predose (Microarray) [2, 6]: −1.33
- CCR7 expression, Niclosamide vs Predose (Microarray) [2, 6]: −1.51
- CD2 expression, Niclosamide vs Predose (Microarray) [2, 6]: −1.56
- CD3D expression, Niclosamide vs Predose (Microarray) [2, 6]: −1.63
- CD3G expression, Niclosamide vs Predose (Microarray) [2, 6]: −1.62
- CD28 expression, Niclosamide vs Predose (Microarray) [2, 6]: −1.72
- CD86 expression, Niclosamide vs Predose (Microarray) [2, 6]: −1.60
- CDSN expression, Niclosamide vs Predose (Microarray) [2, 6]: 1.14
- CERS3 expression, Niclosamide vs Predose (Microarray) [2, 6]: 1.13
- CLDN1 expression, Niclosamide vs Predose (Microarray) [2, 6]: 1.17
- CLDN23 expression, Niclosamide vs Predose (Microarray) [2, 6]: 1.42
- CLN8 expression, Niclosamide vs Predose (Microarray) [2, 6]: 1.15
- CXCL1 expression, Niclosamide vs Predose (Microarray) [2, 6]: −2.83
- CXCL2 expression, Niclosamide vs Predose (Microarray) [2, 6]: −1.81
- DGAT2 expression, Niclosamide vs Predose (Microarray) [2, 6]: 1.33
- DHCR7 expression, Niclosamide vs Predose (Microarray) [2, 6]: 1.12
- ELOVL3 expression, Niclosamide vs Predose (Microarray) [2, 6]: 1.81
- EREG expression, Niclosamide vs Predose (Microarray) [2, 6]: 1.19
- FA2H expression, Niclosamide vs Predose (Microarray) [2, 6]: 1.50
- FAR2 expression, Niclosamide vs Predose (Microarray) [2, 6]: 1.48
- FAXDC2 expression, Niclosamide vs Predose (Microarray) [2, 6]: 1.46
- FLG expression, Niclosamide vs Predose (Microarray) [2, 6]: 1.17
- IFNGR2 expression, Niclosamide vs Predose (Microarray) [2, 6]: −1.13
- IL1F10 expression, Niclosamide vs Predose (Microarray) [2, 6]: 1.98
- IL2RA expression, Niclosamide vs Predose (Microarray) [2, 6]: −1.27
- IL4R expression, Niclosamide vs Predose (Microarray) [2, 6]: −1.80
- IL6R expression, Niclosamide vs Predose (Microarray) [2, 6]: −1.25
- IL7R expression, Niclosamide vs Predose (Microarray) [2, 6]: −1.58
- IL12RB2 expression, Niclosamide vs Predose (Microarray) [2, 6]: −1.21
- IL24 expression, Niclosamide vs Predose (Microarray) [2, 6]: −2.19
- IL37 expression, Niclosamide vs Predose (Microarray) [2, 6]: 1.69
- IRF1 expression, Niclosamide vs Predose (Microarray) [2, 6]: −1.37
- KRT23 expression, Niclosamide vs Predose (Microarray) [2, 6]: 1.26
- KRT77 expression, Niclosamide vs Predose (Microarray) [2, 6]: 1.43
- KRT79 expression, Niclosamide vs Predose (Microarray) [2, 6]: 1.91
- LCN2 expression, Niclosamide vs Predose (Microarray) [2, 6]: −1.62
- MMP12 expression, Niclosamide vs Predose (Microarray) [2, 6]: −2.81
- PI 3 expression, Niclosamide vs Predose (Microarray) [2, 6]: −3.13
- PNPLA3 expression, Niclosamide vs Predose (Microarray) [2, 6]: 1.91
- PPL expression, Niclosamide vs Predose (Microarray) [2, 6]: 1.06
- S100A7 expression, Niclosamide vs Predose (Microarray) [2, 6]: −1.17
- S100A8 expression, Niclosamide vs Predose (Microarray) [2, 6]: −1.45
- S100A9 expression, Niclosamide vs Predose (Microarray) [2, 6]: −2.81
- S100A12 expression, Niclosamide vs Predose (Microarray) [2, 6]: −3.62
- S100P expression, Niclosamide vs Predose (Microarray) [2, 6]: −1.35
- SCEL expression, Niclosamide vs Predose (Microarray) [2, 6]: 1.43
- SERPINB1 expression, Niclosamide vs Predose (Microarray) [2, 6]: −1.29
- SERPINB4 expression, Niclosamide vs Predose (Microarray) [2, 6]: −1.54
- SPTLC3 expression, Niclosamide vs Predose (Microarray) [2, 6]: 1.44
- STAT3 expression, Niclosamide vs Predose (Microarray) [2, 6]: −1.13
- TJP3 expression, Niclosamide vs Predose (Microarray) [2, 6]: 1.51
- TNFSF4 expression, Niclosamide vs Predose (Microarray) [2, 6]: −1.64
- inflammatory cells (dendritic cells: CD11c, FceR1 in epidermis, and Langerhans cells: langerin/CD207) [3, 7]: Significant reductions
- total amount of T cells (CD3) in dermis and epidermis [3, 7]: No significant change
- CD11c Dermis expression level ([3]; Day 22 compared to baseline, clinically correlated to TSS): significantly changed
